From US20120121591A1 (priority 2009, published 2012)
Where two headings read alike, the source gives them in different places.

What was measured:
Assay type in all cases: cell-based
[1] = system: IFN-g secretion from T cells in human whole blood
hKv1.3 = hKv1.3 (Homo sapiens, UniProt P22001); test: cell-based; conditions: Kv1.3 (IWQ) IC50 (nM, Avg)
[2] = system: IL-2 secretion from T cells in human whole blood
[3] = read-out: WB (IFNg) IC50 (nM, Avg)
[4] = read-out: WB (IL-2) IC50 (nM, Avg)
[5] = read-out: WB (IFNg) IC5- (nM, Avg)

hKv1.3, sequence (P22001 whole entry): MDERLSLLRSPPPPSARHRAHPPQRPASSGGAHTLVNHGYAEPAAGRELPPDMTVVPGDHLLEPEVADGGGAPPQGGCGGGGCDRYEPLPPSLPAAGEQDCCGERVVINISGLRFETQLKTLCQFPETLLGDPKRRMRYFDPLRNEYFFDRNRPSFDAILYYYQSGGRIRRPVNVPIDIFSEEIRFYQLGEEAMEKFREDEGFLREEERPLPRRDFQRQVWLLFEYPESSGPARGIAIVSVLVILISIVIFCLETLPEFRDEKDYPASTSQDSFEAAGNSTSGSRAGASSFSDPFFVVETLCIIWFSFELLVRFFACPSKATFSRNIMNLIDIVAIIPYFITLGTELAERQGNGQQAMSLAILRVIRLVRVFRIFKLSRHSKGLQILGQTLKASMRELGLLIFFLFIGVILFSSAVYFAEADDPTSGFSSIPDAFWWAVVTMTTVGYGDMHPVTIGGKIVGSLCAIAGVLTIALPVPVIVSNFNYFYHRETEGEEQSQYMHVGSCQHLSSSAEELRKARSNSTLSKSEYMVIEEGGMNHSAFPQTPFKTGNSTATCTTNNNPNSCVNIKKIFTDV

CCCC[C@@H]1NC(=O)[C@H](CO)NC(=O)[C@H](Cc2c[nH]cn2)NC(=O)[C@H](CCCNC(=N)N)NC(=O)[C@@H]2CSSC[C@@H]3NC(=O)[C@H]([C@@H](C)O)NC(=O)[C@H](CCCNC(=N)N)NC(=O)[C@H](CCCCN)NC(=O)[C@H](CSSC[C@H](NC(=O)[C@H](CCCNC(=N)N)NC(=O)[C@H](CO)NC(=O)[C@H](CCCCN)NC(=O)[C@@H]4CCCN4C(=O)[C@H]([C@@H](C)CC)NC(=O)[C@H]([C@@H](C)O)NC(=O)[C@H](CC(=O)O)NC(=O)[C@H](CCC(=O)O)NC(=O)[C@@H](NC(=O)[C@H](CO)NC(=O)[C@@H](N)CCCNC(=N)N)CSSC[C@@H](C(N)=O)NC(=O)[C@H]([C@@H](C)O)NC(=O)CNC3=O)C(=O)N[C@@H]([C@@H](C)O)C(=O)N[C@@H](C)C(=O)N[C@@H](Cc3ccccc3)C(=O)N[C@@H](CCCCN)C(=O)N2)NC(=O)[C@H](Cc2ccccc2)NC(=O)[C@H](CO)NC(=O)[C@H](CC(C)C)NC(=O)[C@H](CCCNC(=N)N)NC(=O)[C@H](Cc2ccc(O)cc2)NC(=O)[C@H](CCCCN)NC1=O
IC50 [1, 3]: 1.33 nM
IC50 (hKv1.3): 0.269 nM
IC50 [2, 4]: 1.96 nM

CC[C@H](C)[C@@H]1NC(=O)[C@@H](NC(=O)[C@H](CO)NC(=O)[C@@H](N)CCCNC(=N)N)CSSC[C@@H](C(=O)O)NC(=O)[C@H]([C@@H](C)O)NC(=O)CNC(=O)[C@@H]2CSSC[C@@H]3NC(=O)[C@H](CCC(N)=O)NC(=O)[C@H](Cc4ccccc4)NC(=O)[C@H](C)NC(=O)[C@H]([C@@H](C)O)NC(=O)[C@H](CSSC[C@H](NC(=O)[C@H](Cc4ccccc4)NC(=O)[C@H](CO)NC(=O)[C@H](CC(C)C)NC(=O)[C@H](CCCNC(=N)N)NC(=O)[C@H](Cc4ccc(O)cc4)NC(=O)[C@H](CCCCN)NC(=O)[C@H](CCSC)NC(=O)[C@H](CO)NC(=O)[C@H](Cc4c[nH]cn4)NC(=O)[C@H](CCCCN)NC3=O)C(=O)N[C@@H](CCCNC(=N)N)C(=O)N[C@@H](CCCCN)C(=O)N[C@@H]([C@@H](C)O)C(=O)N2)NC(=O)[C@H](CCCNC(=N)N)NC(=O)[C@H](CO)NC(=O)[C@H](C)NC(=O)[C@@H]2CCCN2C(=O)[C@H]([C@@H](C)CC)NC(=O)[C@H]([C@@H](C)O)NC(=O)[C@H](CC(=O)O)NC1=O [[Ala9]ShK]
IC50 [1, 3]: 0.103 nM
IC50 (hKv1.3): 0.116 nM
IC50 [2, 4]: 0.053 nM

CC[C@H](C)[C@@H]1NC(=O)[C@@H](NC(=O)[C@H](CO)NC(=O)[C@@H](N)CCCNC(=N)N)CSSC[C@@H](C(=O)O)NC(=O)[C@H]([C@@H](C)O)NC(=O)CNC(=O)[C@@H]2CSSC[C@@H]3NC(=O)[C@H](CCC(=O)O)NC(=O)[C@H](Cc4ccccc4)NC(=O)[C@H](C)NC(=O)[C@H]([C@@H](C)O)NC(=O)[C@H](CSSC[C@H](NC(=O)[C@H](Cc4ccccc4)NC(=O)[C@H](CO)NC(=O)[C@H](CC(C)C)NC(=O)[C@H](CCCNC(=N)N)NC(=O)[C@H](Cc4ccc(O)cc4)NC(=O)[C@H](CCCCN)NC(=O)[C@H](CCSC)NC(=O)[C@H](CO)NC(=O)[C@H](Cc4c[nH]cn4)NC(=O)[C@H](CCCCN)NC3=O)C(=O)N[C@@H](CCCNC(=N)N)C(=O)N[C@@H](CCCCN)C(=O)N[C@@H]([C@@H](C)O)C(=O)N2)NC(=O)[C@H](CCCNC(=N)N)NC(=O)[C@H](CO)NC(=O)[C@H](CCCCN)NC(=O)[C@@H]2CCCN2C(=O)[C@H]([C@@H](C)CC)NC(=O)[C@H]([C@@H](C)O)NC(=O)[C@H](CC(=O)O)NC1=O [[Glu16]ShK]
IC50 [1, 5]: 0.373 nM
IC50 (hKv1.3): 0.206 nM
IC50 [2, 4]: 0.351 nM

CC[C@H](C)[C@@H]1NC(=O)[C@@H](NC(=O)[C@H](CO)NC(=O)[C@@H](N)CCCNC(=N)N)CSSC[C@@H](C(=O)O)NC(=O)[C@H]([C@@H](C)O)NC(=O)CNC(=O)[C@@H]2CSSC[C@@H]3NC(=O)[C@H](CCC(N)=O)NC(=O)[C@H](Cc4ccccc4)NC(=O)[C@H](C)NC(=O)[C@H]([C@@H](C)O)NC(=O)[C@H](CSSC[C@H](NC(=O)[C@H](Cc4ccccc4)NC(=O)[C@H](CO)NC(=O)[C@H](CC(C)C)NC(=O)[C@H](CCCNC(=N)N)NC(=O)[C@H](Cc4ccc(O)cc4)NC(=O)[C@H](CCCCN)NC(=O)[C@H](CCSC)NC(=O)[C@H](CO)NC(=O)[C@H](Cc4c[nH]cn4)NC(=O)[C@H](CCCCN)NC3=O)C(=O)N[C@@H](CCCCN)C(=O)N[C@@H](CCCCN)C(=O)N[C@@H]([C@@H](C)O)C(=O)N2)NC(=O)[C@H](CCCNC(=N)N)NC(=O)[C@H](CO)NC(=O)[C@H](CCCCN)NC(=O)[C@@H]2CCCN2C(=O)[C@H]([C@@H](C)CC)NC(=O)[C@H]([C@@H](C)O)NC(=O)[C@H](CC(=O)O)NC1=O [[Lys29]ShK]
IC50 [1, 3]: 0.071 nM
IC50 (hKv1.3): 0.158 nM
IC50 [2, 4]: 0.04 nM

CCCC[C@@H]1NC(=O)[C@H](CO)NC(=O)[C@H](Cc2c[nH]cn2)NC(=O)[C@H](CCCCN)NC(=O)[C@@H]2CSSC[C@@H]3NC(=O)[C@H]([C@@H](C)O)NC(=O)[C@H](CCCCN)NC(=O)[C@H](CCCNC(=N)N)NC(=O)[C@H](CSSC[C@H](NC(=O)[C@H](CCCNC(=N)N)NC(=O)[C@H](CO)NC(=O)[C@H](CCCCN)NC(=O)[C@@H]4CCCN4C(=O)[C@H]([C@@H](C)CC)NC(=O)[C@H]([C@@H](C)O)NC(=O)[C@H](CC(=O)O)NC(=O)[C@H]([C@@H](C)CC)NC(=O)[C@@H](NC(=O)[C@H](CO)NC(=O)[C@@H](N)CCCNC(=N)N)CSSC[C@@H](C(N)=O)NC(=O)[C@H]([C@@H](C)O)NC(=O)CNC3=O)C(=O)N[C@@H]([C@@H](C)O)C(=O)N[C@@H](C)C(=O)N[C@@H](Cc3ccccc3)C(=O)N[C@@H](CCCCN)C(=O)N2)NC(=O)[C@H](Cc2ccccc2)NC(=O)[C@H](CO)NC(=O)[C@H](CC(C)C)NC(=O)[C@H](CCCNC(=N)N)NC(=O)[C@H](Cc2ccc(O)cc2)NC(=O)[C@H](CCCCN)NC1=O [[Lys16, Nle21]ShK-amide]
IC50 [1, 3]: 1.1 nM
IC50 (hKv1.3): 0.153 nM
IC50 ([2]; read-out: WB (IL-2) IC50): 0.82 nM
IC50 [2, 4]: 0.823 nM

CC[C@H](C)[C@@H]1NC(=O)[C@@H](NC(=O)[C@H](CO)NC(=O)[C@@H](N)CCCNC(=N)N)CSSC[C@@H](C(N)=O)NC(=O)[C@H]([C@@H](C)O)NC(=O)CNC(=O)[C@@H]2CSSC[C@@H]3NC(=O)[C@H](CCCCN)NC(=O)[C@H](Cc4ccccc4)NC(=O)[C@H](C)NC(=O)[C@H]([C@@H](C)O)NC(=O)[C@H](CSSC[C@H](NC(=O)[C@H](Cc4ccccc4)NC(=O)[C@H](CO)NC(=O)[C@H](CC(C)C)NC(=O)[C@H](CCCNC(=N)N)NC(=O)[C@H](Cc4ccc(O)cc4)NC(=O)[C@H](CCCCN)NC(=O)[C@H](CCSC)NC(=O)[C@H](CO)NC(=O)[C@H](Cc4c[nH]cn4)NC(=O)[C@H](CCCCN)NC3=O)C(=O)N[C@@H](CCCNC(=N)N)C(=O)N[C@@H](CCCNC(=N)N)C(=O)N[C@@H]([C@@H](C)O)C(=O)N2)NC(=O)[C@H](CCCNC(=N)N)NC(=O)[C@H](CO)NC(=O)[C@H](CCCCN)NC(=O)[C@@H]2CCCN2C(=O)[C@H]([C@@H](C)CC)NC(=O)[C@H]([C@@H](C)O)NC(=O)[C@H](CC(=O)O)NC1=O [[Lys16,Arg30]ShK-amide]
IC50 [1, 3]: 0.236 nM
IC50 (hKv1.3): 0.129 nM
IC50 [2, 4]: 0.151 nM

CC[C@H](C)[C@@H]1NC(=O)[C@@H](NC(=O)[C@H](CO)NC(=O)[C@@H](N)CCCNC(=N)N)CSSC[C@@H](C(=O)O)NC(=O)[C@H]([C@@H](C)O)NC(=O)CNC(=O)[C@@H]2CSSC[C@@H]3NC(=O)[C@H](CCC(N)=O)NC(=O)[C@H](Cc4ccccc4)NC(=O)[C@H](C)NC(=O)[C@H]([C@@H](C)O)NC(=O)[C@H](CSSC[C@H](NC(=O)[C@H](Cc4ccccc4)NC(=O)[C@H](CO)NC(=O)[C@H](CC(C)C)NC(=O)[C@H](CCCNC(=N)N)NC(=O)[C@H](Cc4ccc(O)cc4)NC(=O)[C@H](CCCCN)NC(=O)[C@H](CCSC)NC(=O)[C@H](CCCCN)NC(=O)[C@H](Cc4c[nH]cn4)NC(=O)[C@H](CCCCN)NC3=O)C(=O)N[C@@H](CCCNC(=N)N)C(=O)N[C@@H](CCCCN)C(=O)N[C@@H]([C@@H](C)O)C(=O)N2)NC(=O)[C@H](CCCNC(=N)N)NC(=O)[C@H](CO)NC(=O)[C@H](CCCCN)NC(=O)[C@@H]2CCCN2C(=O)[C@H]([C@@H](C)CC)NC(=O)[C@H]([C@@H](C)O)NC(=O)[C@H](CC(=O)O)NC1=O [[Lys20]ShK]
IC50 [1, 3]: 0.192 nM
IC50 (hKv1.3): 1.33 nM
IC50 [2, 4]: 0.108 nM

CC[C@H](C)[C@@H]1NC(=O)[C@@H](NC(=O)[C@H](CO)NC(=O)[C@@H](N)CCCNC(=N)N)CSSC[C@@H](C(=O)O)NC(=O)[C@H]([C@@H](C)O)NC(=O)CNC(=O)[C@@H]2CSSC[C@@H]3NC(=O)[C@H](CCC(N)=O)NC(=O)[C@H](Cc4ccccc4)NC(=O)[C@H](C)NC(=O)[C@H]([C@@H](C)O)NC(=O)[C@H](CSSC[C@H](NC(=O)[C@H](Cc4ccccc4)NC(=O)[C@H](CO)NC(=O)[C@H](CC(C)C)NC(=O)[C@H](CCCNC(=N)N)NC(=O)[C@H](Cc4ccc(O)cc4)NC(=O)[C@H](CCCCN)NC(=O)[C@H](CCSC)NC(=O)[C@H](CO)NC(=O)[C@H](Cc4c[nH]cn4)NC(=O)[C@H](CCC(=O)O)NC3=O)C(=O)N[C@@H](CCCNC(=N)N)C(=O)N[C@@H](CCCCN)C(=O)N[C@@H]([C@@H](C)O)C(=O)N2)NC(=O)[C@H](CCCNC(=N)N)NC(=O)[C@H](CO)NC(=O)[C@H](CCCCN)NC(=O)[C@@H]2CCCN2C(=O)[C@H]([C@@H](C)CC)NC(=O)[C@H]([C@@H](C)O)NC(=O)[C@H](CC(=O)O)NC1=O [[Glu18]ShK]
IC50 [1, 5]: 0.083 nM
IC50 (hKv1.3): 0.117 nM
IC50 [2, 4]: 0.047 nM
